In article PMC4670726, “Systematic discovery of linear binding motifs targeting an ancient protein interaction surface on MAP kinases” (Molecular Systems Biology, 2015):
Ends that are not written are not given here.

What was measured:
p38α = biological target: T1, p38α (Homo sapiens, UniProt Q16539); assay: Fluorescence polarization (FP) competitive protein-peptide binding assay, p38α; conditions: FP competition titration of unlabeled synthetic peptide against 50 nM fluorescently labeled pepMK2 or pepMEF2A, MAPK at ~60–80% complex formation, 384-well, triplicates, average FP signal fitted; limit of quantitation ~100 μM
T1 construct: hexa-histidine; made in house; host or cells: E. coli (Rosetta pLysS)
T1 sequence (Q16539 whole entry): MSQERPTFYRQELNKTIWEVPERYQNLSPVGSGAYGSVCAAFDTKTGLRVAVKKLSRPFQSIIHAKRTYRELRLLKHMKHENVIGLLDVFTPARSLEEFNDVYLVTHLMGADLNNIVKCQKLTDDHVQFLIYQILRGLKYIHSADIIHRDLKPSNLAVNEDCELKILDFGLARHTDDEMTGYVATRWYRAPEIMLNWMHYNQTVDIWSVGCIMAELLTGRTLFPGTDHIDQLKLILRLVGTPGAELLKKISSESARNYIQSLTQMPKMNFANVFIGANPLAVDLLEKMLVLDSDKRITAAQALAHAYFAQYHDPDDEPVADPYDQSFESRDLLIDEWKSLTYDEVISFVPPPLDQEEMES
Experimental: (§1) In addition to confirming binding in the MAPK‐docking groove, the dissociation constant (Kd) of unlabeled test peptides could also be calculated.
(§2) Dashes indicate cases where the curves could not be fitted (the Kd is above the limit of quantitation of this assay, approximately ~100 μM). Peptides are grouped in two clusters, the first being the strong JNK1 binders (frequently with little or no ERK2/p38α‐binding ability). The second group (below the magenta line) contains peptides with strong ERK2‐ and p38α‐binding capacity (but often little or no affinity toward JNK1). […] Gab3+ is the ortholog of a peptide from Gab1 which was tested as positive in the dot‐blot experiments. The two Gab3 motifs are related neither by structure nor by evolutionary origin. […]
(§3) For fluorescence polarization (FP)‐based binding affinity measurements, known MAPK‐docking groove‐binding peptides were N‐terminally labeled with carboxyfluorescein or carboxytetramethylrhodamine (for ERK2, pepRSK1: […]; for p38α, pepMK2: […] or pepMEF2A: […]; for JNK1, pep JIP3: […]). […] Subsequently, increasing amounts of chemically synthesized test peptides were added, and the FP signal was measured with a Synergy H4 (BioTek Instruments) plate reader in 384‐well plates. The Ki for each unlabeled peptide was determined by fitting the data to a competition binding equation. […]

ERK2 = biological target: T2, ERK2 (Homo sapiens, UniProt P28482); assay: Fluorescence polarization (FP) competitive protein-peptide binding assay, ERK2; conditions: FP competition titration of unlabeled synthetic peptide against 50 nM fluorescently labeled pepRSK1, MAPK at ~60–80% complex formation, 384-well, triplicates, average FP signal fitted; limit of quantitation ~100 μM
T2 construct: hexa-histidine; made in house; host or cells: E. coli (Rosetta pLysS)
T2 sequence (P28482 whole entry): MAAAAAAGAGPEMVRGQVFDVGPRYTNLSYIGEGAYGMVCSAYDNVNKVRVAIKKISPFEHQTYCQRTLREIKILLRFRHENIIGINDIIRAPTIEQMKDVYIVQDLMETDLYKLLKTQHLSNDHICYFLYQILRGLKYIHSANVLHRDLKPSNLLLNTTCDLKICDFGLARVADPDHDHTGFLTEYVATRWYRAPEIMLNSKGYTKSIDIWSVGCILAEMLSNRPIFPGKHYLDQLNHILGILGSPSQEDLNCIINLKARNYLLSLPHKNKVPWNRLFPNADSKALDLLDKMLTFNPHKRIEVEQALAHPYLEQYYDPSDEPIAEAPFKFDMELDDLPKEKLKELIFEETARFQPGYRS
Experimental: as §1, §2, §3

JNK1 = biological target: T3, JNK1 (Homo sapiens, UniProt P45983); assay: Fluorescence polarization (FP) competitive protein-peptide binding assay, JNK1; conditions: FP competition titration of unlabeled synthetic peptide against 50 nM fluorescently labeled pep JIP3, MAPK at ~60–80% complex formation, 384-well, triplicates, average FP signal fitted; limit of quantitation ~100 μM
T3 construct: hexa-histidine; made in house; host or cells: E. coli (Rosetta pLysS)
T3 sequence (P45983 whole entry): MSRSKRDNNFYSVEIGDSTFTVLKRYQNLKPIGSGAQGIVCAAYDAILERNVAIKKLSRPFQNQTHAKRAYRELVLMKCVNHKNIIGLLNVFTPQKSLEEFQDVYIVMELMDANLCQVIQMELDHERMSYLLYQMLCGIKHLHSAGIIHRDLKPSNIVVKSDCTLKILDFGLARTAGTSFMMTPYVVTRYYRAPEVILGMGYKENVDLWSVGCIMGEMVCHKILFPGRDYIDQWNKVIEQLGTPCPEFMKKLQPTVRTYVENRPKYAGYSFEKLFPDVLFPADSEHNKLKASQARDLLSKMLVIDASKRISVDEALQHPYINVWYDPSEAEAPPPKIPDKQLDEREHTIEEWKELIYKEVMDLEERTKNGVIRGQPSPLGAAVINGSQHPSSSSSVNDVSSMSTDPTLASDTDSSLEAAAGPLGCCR
Experimental: as §1, §2, §3

Sequence: KPQRKSRPPPLDLRNLS [GAB3+]
- Kd (p38α): 2 µM
- Kd (ERK2): 0.7 µM
- Kd (JNK1): 13.2 µM
